Measurements: patent US20240208937A1, “Compounds and Their Use for Treatment of Hemoglobinopathies” (Bristol-Myers Squibb Company, priority 2022, published 2024)

How the values were obtained:
Format in all cases: cell-based
[1] = test system: fetal hemoglobin (HbF) in GCSF-mobilized human CD34+ cells; test: HbF Induction Assay; conditions: 168 h; compound 1 μM, 7 days, erythroid-differentiated human CD34+ cells, flow cytometry; DMSO baseline 15% HbF positive cells
Procedure: The expansion, differentiation, and maturation of GCSF-mobilized human CD34^+ (STEMCELL Technologies Inc.) cells towards erythroid lineage cells were performed using a two-phase liquid culture model (Moutouh-de Parseval L A, el al. Pomalidomide and lenalidomide regulate erythropoiesis and fetal hemoglobin production in human CD34+ cells. J Clin Invest. 2008 January; 118(1):248-58). In the first phase, GCSF-mobilized human CD34^+ cells were cultured using StemSpan™-XF (STEMCELL Technologies Inc.) media supplemented with 1×BIT 9500, Penicillin-Streptomycin (50 U/mL), 100 ng/mL recombinant human (rh) SCF, 100 ng/mL rh Flt3-L, 20 ng/mL rh IL-3 and 10 ng/mL rh EPO and the growth of cells maintained in exponential phase for 7 days at 37° C. with 5% CO2 to support expansion and progenitor differentiation prior the second phase and treatment with compounds. In the second phase, culture media was changed to StemSpan™-XF media supplemented with 1×BIT 9500, Penicillin-Streptomycin (50 U/mL), 50 ng/mL rh SCF and 40 ng/mL rh EPO to promote further differentiation and maturation of the erythrocytes and to initiate treatment with compounds. Compounds were dispensed in duplicate at a final concentration of 1 μM in a final DMSO amount of 0.1%. Fresh compound was reapplied, and cell density was kept constant every 2 days. After 7 days, the cells were assessed for viability and fetal hemoglobin expression using flow cytometry. For viability analysis, eBioscience™ Fixable Viability Dye eFluor™ 780 (1:1000, eBioscience; Cat #65-0865-14) was added to the cells and kept in the dark for 10 minutes. For analysis of fetal hemoglobin (HbF), cells were fixed and permeabilized using Fixation Buffer (BioLegend; Cat #420801 and Intracellular staining permeabilization buffer (BioLegend, Cat #420201) following manufacturer's instructions. During permeabilization step, cells were stained with PE-labelled Mouse Anti-Human Fetal Hemoglobin (1:10, clone 2D12; BD Biosciences, Cat #BDB560041) incubated at room temperature for 20 minutes and protected from light. PE-labelled Mouse anti-IgG k, (1:10 clone MOPC-21; BD Biosciences, Cat# BDB551436) was used as an isotype control.
Viability, cell count, and fetal hemoglobin (HbF) levels were measured using an Attune NXT flow cytometer (Thermofisher) and the data analyzed using the FCS express software (De Novo Software). In Table 1 below, the effects of compounds of formula (I), formula (I′), formula (II), formula (II′), and formula (III) on % viable cells, viable cell count, on the % HbF positive cells and the median fluorescent intensity (MFI) of the HbF positive cell population compared to the DMSO controls can be viewed. All gates were set using the isotype negative control. The baseline % HbF positive cells for DMSO-treated control cells was 15%. Compounds of formula (I), formula (I′), formula (II), formula (II′), and formula (III) having HbF induction between 66% and 100% are level A. Compounds of formula (I), formula (I′), formula (II), formula (II′), and formula (III) having HbF induction between 33% and 66% are level B. Compounds of formula (I), formula (I′), formula (II), formula (II′), and formula (III) having HbF induction % less than 33% are level C. For certain compounds of formula (I), formula (I′), formula (II), formula (II′), and formula (III) % HbF induction values 0-33% (activity level C), between 33% and 66% (activity level B), and between 67% and 100% (activity level A) are shown in Table 2 below.

[2] = target: WIZ (Widely interspaced zinc finger) (Homo sapiens (Human), UniProt O95785+Q96SW2); test: HUDEP-2 WIZ HiBiT degradation assay; conditions: HUDEP-2 WIZ HiBiT cells, 24 hours treatment, luminescence; for DC50: read-out: WIZ EC50
Procedure: (§1) The HiBiT degradation assay for WIZ and ZBTB7A in HUDEP-2 cells was performed as described below. HUDEP-2 cells engineered to express a HiBiT tag in either the WIZ (Widely interspaced zinc finger) or ZBTB7A (Zinc Finger And BTB Domain Containing 7A) proteins were maintained in low attachment flasks in StemSpan SFEM II media supplemented with Penicillin-Streptomycin (50 U/mL), rhSCF (50 ng/mL), rhEPO (3 IU/mL), dexamethasone (0.4 μg/mL) and doxycycline (1 μg/mL). Prior to start of the assay, cell count and viability were measured by trypan blue exclusion using the Vi-cell XR cell viability analyzer. For the HUDEP-2 WIZ HiBiT assay, cells were transferred to a 50 mL conical and centrifuged at 500 g for five minutes. Cells were resuspended in fresh StemSpan SFEM II media supplemented with Penicillin-Streptomycin (50 U/mL), rhSCF (50 ng/mL), rhEPO (3 IU/mL), dexamethasone (0.4 μg/mL) and doxycycline (1 μg/mL) at a density of 1.0×10^6 cells/ml. Forty microliters of cell suspension was dispensed into 384-well Low Flange White Flat Bottom Polystyrene TC-treated Microplates containing pre-dispensed compounds, using a VIAFLO 384 liquid hander, and placed in a 37° C. incubator with 5% CO2. […] After 24 hours of treatment, 40 μL Nano-Glo HiBiT Lytic Detection System reagent was dispensed into each well using a VIAFLO 384 liquid hander. Plates were incubated for 25 minutes at room temperature and the luminescence was read as relative luminescent units using the EnVision plate reader. EC50 and Y-min values were calculated using curves calculated from dotmatics software after the normalization to the DMSO control of 10 different concentrations: 10, 3.33, 1.11, 0.37, 0.12, 0.04 0.0137, 0.0046, 0.0015 and 0.0005 μM respectively.

[3] = target: ZBTB7A (Zinc Finger And BTB Domain Containing 7A) (Homo sapiens (Human), UniProt O95365+Q96SW2); test: HUDEP-2 ZBTB7A HiBiT degradation assay; conditions: HUDEP-2 ZBTB7A HiBiT cells, 24 hours treatment, luminescence; for DC50: read-out: ZBTB7A EC50
Procedure: as §1
For the HUDEP-2 ZBTB7A HiBiT assay, cell count and viability were measured by trypan blue exclusion using the Vi-cell XR cell viability analyzer and the cells were transferred to a 50 mL conical and centrifuged at 500 g for five minutes. Cells were resuspended in fresh IMDM media supplemented with L-Glutamine (1×), Penicillin-Streptomycin (50 U/mL), holo-transferrin (330 μg/mL), heparin (2 IU/mL), r-human Insulin (10 μg/mL), rhEPO (3 IU/mL), rhSCF (100 ng/mL)+Dox (1 μg/mL) and 5% human plasma in low attachment flasks, which were placed in a 37° C. incubator with 5% CO2. After 48 hours, cell count and viability were measured by trypan blue exclusion using the Vi-cell XR cell viability analyzer. The HUDEP-2 ZBTB7A cells were transferred to a 50 mL conical, centrifuged at 500 g for five minutes and resuspended at a density of 1.0×10^6 cells/ml in IMDM media supplemented with L-Glutamine (1×), Penicillin-Streptomycin (50 U/mL), holo-transferrin (330 μg/mL), heparin (2 IU/mL), r-human Insulin (10 μg/mL), rhEPO (3 IU/mL), rhSCF (100 ng/mL)+Dox (1 μg/mL) and 5% human plasma. Forty microliters of cell suspension was dispensed into 384-well Low Flange White Flat Bottom Polystyrene TC-treated Microplates containing pre-dispensed compounds, using a VIAFLO 384 liquid hander, and placed in a 37° C. incubator with 5% CO2. […] After 24 hours of treatment, 40 μL Nano-Glo HiBiT Lytic Detection System reagent was dispensed into each well using a VIAFLO 384 liquid hander. Plates were incubated for 25 minutes at room temperature and the luminescence was read as relative luminescent units using the EnVision plate reader. EC50 and Y-min values were calculated using curves calculated from dotmatics software after the normalization to the DMSO control of 10 different concentrations: 10, 3.33, 1.11, 0.37, 0.12, 0.04 0.0137, 0.0046, 0.0015 and 0.0005 μM respectively.

ZBTB7A (Zinc Finger And BTB Domain Containing 7A), sequence (O95365 whole entry, the tested form may be a part): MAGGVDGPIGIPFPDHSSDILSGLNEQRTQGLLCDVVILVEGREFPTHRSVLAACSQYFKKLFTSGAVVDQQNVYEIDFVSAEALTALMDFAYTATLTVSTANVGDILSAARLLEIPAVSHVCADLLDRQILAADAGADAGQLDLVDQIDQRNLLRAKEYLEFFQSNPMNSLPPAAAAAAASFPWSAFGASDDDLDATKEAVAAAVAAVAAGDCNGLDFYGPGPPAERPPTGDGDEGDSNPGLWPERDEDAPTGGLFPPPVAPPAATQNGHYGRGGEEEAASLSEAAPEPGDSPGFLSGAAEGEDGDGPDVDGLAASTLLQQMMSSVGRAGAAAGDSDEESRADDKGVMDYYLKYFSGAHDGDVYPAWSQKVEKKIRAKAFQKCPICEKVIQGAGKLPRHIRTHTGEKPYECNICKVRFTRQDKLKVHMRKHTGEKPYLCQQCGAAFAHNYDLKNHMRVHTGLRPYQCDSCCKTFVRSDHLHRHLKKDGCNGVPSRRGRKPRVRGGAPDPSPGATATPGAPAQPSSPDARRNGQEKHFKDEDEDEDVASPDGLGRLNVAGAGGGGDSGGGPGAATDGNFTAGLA
ZBTB7A (Zinc Finger And BTB Domain Containing 7A), sequence (Q96SW2 whole entry, the tested form may be a part): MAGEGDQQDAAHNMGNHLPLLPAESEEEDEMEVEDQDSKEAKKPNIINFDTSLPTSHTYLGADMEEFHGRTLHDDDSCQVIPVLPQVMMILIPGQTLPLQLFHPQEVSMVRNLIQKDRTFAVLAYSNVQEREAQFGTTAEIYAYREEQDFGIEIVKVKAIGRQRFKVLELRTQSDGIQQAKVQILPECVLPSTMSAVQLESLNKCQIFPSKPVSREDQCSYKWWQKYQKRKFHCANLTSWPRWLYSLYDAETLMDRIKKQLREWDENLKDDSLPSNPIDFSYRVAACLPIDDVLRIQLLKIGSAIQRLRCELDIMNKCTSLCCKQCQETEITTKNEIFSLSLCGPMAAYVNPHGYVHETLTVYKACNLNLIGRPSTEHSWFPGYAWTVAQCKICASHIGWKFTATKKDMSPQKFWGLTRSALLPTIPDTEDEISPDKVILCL
ZBTB7A (Zinc Finger And BTB Domain Containing 7A), sequence (Q16531 whole entry partner, the tested form may be a part): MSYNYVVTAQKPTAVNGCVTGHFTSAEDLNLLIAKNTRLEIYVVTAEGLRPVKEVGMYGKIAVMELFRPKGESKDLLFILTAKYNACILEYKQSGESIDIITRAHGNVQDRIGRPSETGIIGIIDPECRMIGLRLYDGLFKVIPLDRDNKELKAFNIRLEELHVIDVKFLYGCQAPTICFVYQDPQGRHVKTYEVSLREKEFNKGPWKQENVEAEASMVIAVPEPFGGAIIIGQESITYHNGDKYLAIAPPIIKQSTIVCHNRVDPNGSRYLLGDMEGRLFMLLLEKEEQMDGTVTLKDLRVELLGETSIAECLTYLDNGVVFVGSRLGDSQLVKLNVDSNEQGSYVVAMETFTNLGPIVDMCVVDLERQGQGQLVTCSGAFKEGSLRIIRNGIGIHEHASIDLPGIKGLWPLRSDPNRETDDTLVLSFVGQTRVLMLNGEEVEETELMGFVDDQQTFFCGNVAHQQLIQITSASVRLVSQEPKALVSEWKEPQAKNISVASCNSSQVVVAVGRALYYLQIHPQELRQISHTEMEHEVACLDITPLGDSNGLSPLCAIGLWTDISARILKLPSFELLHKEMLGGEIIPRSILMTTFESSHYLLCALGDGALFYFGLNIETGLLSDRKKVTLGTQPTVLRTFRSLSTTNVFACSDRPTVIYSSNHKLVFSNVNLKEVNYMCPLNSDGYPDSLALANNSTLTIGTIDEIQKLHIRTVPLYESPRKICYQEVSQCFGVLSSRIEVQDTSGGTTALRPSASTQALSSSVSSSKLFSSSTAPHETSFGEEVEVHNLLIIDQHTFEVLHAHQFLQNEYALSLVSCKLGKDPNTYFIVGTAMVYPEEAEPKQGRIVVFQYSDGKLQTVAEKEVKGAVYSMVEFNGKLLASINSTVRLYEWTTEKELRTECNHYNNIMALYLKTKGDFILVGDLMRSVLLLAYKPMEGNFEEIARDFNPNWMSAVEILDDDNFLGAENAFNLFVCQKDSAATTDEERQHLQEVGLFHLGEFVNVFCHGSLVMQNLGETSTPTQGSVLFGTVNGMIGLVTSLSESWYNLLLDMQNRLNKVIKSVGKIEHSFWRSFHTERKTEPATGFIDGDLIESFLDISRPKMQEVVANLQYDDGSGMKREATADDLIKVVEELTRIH
WIZ (Widely interspaced zinc finger), sequence (O95785 whole entry, the tested form may be a part): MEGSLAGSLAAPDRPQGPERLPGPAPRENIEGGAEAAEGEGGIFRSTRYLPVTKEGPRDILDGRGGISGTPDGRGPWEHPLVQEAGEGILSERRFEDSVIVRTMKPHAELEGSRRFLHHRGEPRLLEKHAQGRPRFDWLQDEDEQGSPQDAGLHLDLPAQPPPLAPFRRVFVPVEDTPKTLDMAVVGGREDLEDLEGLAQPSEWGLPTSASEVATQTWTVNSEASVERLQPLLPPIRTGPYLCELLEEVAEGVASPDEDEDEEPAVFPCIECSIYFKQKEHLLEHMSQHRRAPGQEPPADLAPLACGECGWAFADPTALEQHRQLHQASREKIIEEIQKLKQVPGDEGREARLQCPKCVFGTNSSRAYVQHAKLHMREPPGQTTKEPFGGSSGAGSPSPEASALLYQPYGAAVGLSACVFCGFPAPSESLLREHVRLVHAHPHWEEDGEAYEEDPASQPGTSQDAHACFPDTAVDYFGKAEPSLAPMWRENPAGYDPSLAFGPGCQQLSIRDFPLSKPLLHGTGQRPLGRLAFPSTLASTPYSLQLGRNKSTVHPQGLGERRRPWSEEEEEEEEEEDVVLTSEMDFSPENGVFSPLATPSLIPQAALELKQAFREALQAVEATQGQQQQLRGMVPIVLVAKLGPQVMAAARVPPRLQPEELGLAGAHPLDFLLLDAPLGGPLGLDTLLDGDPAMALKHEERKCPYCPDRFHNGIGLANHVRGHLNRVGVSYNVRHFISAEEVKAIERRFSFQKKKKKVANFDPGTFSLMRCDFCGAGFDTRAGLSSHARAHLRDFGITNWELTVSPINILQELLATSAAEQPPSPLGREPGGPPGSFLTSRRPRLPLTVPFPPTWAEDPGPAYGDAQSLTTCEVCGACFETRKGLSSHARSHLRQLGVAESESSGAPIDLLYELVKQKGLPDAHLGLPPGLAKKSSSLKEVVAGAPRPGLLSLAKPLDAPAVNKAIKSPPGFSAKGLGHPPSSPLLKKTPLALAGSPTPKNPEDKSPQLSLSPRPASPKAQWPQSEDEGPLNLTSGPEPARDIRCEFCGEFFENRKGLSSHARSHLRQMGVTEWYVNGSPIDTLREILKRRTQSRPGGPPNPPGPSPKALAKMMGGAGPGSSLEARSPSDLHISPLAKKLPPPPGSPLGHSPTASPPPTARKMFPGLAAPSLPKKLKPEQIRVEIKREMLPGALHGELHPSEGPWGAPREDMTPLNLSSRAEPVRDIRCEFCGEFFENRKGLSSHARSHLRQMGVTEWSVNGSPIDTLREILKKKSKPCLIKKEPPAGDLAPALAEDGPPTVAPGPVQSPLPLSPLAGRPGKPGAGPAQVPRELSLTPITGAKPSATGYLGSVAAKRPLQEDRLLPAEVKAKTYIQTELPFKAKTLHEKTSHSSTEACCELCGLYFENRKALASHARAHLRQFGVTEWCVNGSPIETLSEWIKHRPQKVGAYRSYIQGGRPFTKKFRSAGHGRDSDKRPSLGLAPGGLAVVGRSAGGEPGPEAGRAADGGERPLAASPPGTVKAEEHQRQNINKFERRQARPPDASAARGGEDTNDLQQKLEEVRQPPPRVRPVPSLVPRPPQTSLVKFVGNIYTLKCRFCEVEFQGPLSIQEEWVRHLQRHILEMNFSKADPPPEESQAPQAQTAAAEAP
WIZ (Widely interspaced zinc finger), sequence (Q96SW2 whole entry, the tested form may be a part): as the sequence (Q96SW2 whole entry, the tested form may be a part) above
WIZ (Widely interspaced zinc finger), sequence (Q16531 whole entry partner, the tested form may be a part): as the sequence (Q16531 whole entry partner, the tested form may be a part) above

SMILES | activation at 1 µM [1] | EC50 [2] | EC50 [3] | DC50 [3] | DC50 [2]
Cc1nccc(-c2cc3c(cc2Nc2cccc4c2C(=O)N(C2CCC(=O)NC2=O)C4=O)N(C)C(=O)CC3)c1F (stereo not drawn) [Compound 45, 2-(2,6-dioxopiperidin-3-yl)-4-((6-(3-fluoro-2-methylpyridin-4-yl)-1-methyl-2-oxo-1,2,3,4-tetrahydroquinolin-7-yl)amino)isoindoline-1,3-dione] | 66 to 100% | < 0.01 µM | < 0.03 µM |  | 
Cc1c(Nc2cccc3c2C(=O)N(C2CCC(=O)NC2=O)C3=O)ccc2c1cnn2C1CCOCC1 (stereo not drawn) [Compound 20, 2-(2,6-dioxopiperidin-3-yl)-4-((4-methyl-1-(tetrahydro-2H-pyran-4-yl)-1H-indazol-5-yl)amino)isoindoline-1,3-dione] | 33 to 66% | < 0.01 µM | > 0.1 µM |  | 
Cn1ncc2cc(Nc3cccc4c3C(=O)N(C3CCC(=O)NC3=O)C4=O)c(Oc3ccccc3)cc21 (stereo not drawn) [Compound 15, 2-(2,6-dioxopiperidin-3-yl)-4-((1-methyl-6-phenoxy-1H-indazol-5-yl)amino)isoindoline-1,3-dione] | 66 to 100% | < 0.01 µM |  | 0.03 to 0.1 µM | 
Cc1cc(-c2cc3onc(C)c3cc2Nc2cccc3c2C(=O)N(C2CCC(=O)NC2=O)C3=O)ccn1 (stereo not drawn) [Compound 8, 2-(2,6-dioxopiperidin-3-yl)-4-((3-methyl-6-(2-methylpyridin-4-yl)benzo[d]isoxazol-5-yl)amino)isoindoline-1,3-dione] | 66 to 100% |  |  | 0.03 to 0.1 µM | 0.01 to 0.1 µM
COc1cc(-c2ccccc2)c(Nc2cccc3c2C(=O)N(C2CCC(=O)NC2=O)C3=O)cn1 (stereo not drawn) [Compound 30, 2-(2,6-dioxopiperidin-3-yl)-4-((6-methoxy-4-phenylpyridin-3-yl)amino)isoindoline-1,3-dione] | < 33% |  |  | 0.03 to 0.1 µM | 0.01 to 0.1 µM
CN(C)C1CCc2ccc(Nc3cccc4c3C(=O)N([C@@]3(C)CCC(=O)NC3=O)C4=O)cc21 (stereo partly drawn) [Compound 31, 4-((3-(dimethylamino)-2,3-dihydro-1H-inden-5-yl)amino)-2-((S)-3-methyl-2,6-dioxopiperidin-3-yl)isoindoline-1,3-dione] | 33 to 66% |  | > 0.1 µM |  | 0.01 to 0.1 µM
COc1cc2c(cnn2C2CCOCC2)cc1Nc1cccc2c1C(=O)N(C1CCC(=O)NC1=O)C2=O (stereo not drawn) [Compound 18, 2-(2,6-dioxopiperidin-3-yl)-4-((6-methoxy-1-(tetrahydro-2H-pyran-4-yl)-1H-indazol-5-yl)amino)isoindoline-1,3-dione] | 66 to 100% | < 0.01 µM |  | 0.03 to 0.1 µM | 
Cc1cc(-c2cc3c(cc2Nc2cccc4c2C(=O)N(C2CCC(=O)NC2=O)C4=O)N(C)C(=O)CC3)cc(C)n1 (stereo not drawn) [Compound 48, 4-((6-(2,6-dimethylpyridin-4-yl)-1-methyl-2-oxo-1,2,3,4-tetrahydroquinolin-7-yl)amino)-2-(2,6-dioxopiperidin-3-yl)isoindoline-1,3-dione] | 66 to 100% | < 0.01 µM | < 0.03 µM |  | 
Cc1cc(-c2cc3c(cc2Nc2cccc4c2C(=O)N([C@H]2CCC(=O)NC2=O)C4=O)n(C)c(=O)n3C)ccn1 [Compound 41, (S)-4-((1,3-dimethyl-6-(2-methylpyridin-4-yl)-2-oxo-2,3-dihydro-1H-benzo[d]imidazol-5-yl)amino)-2-(2,6-dioxopiperidin-3-yl)isoindoline-1,3-dione] | 66 to 100% | < 0.01 µM | < 0.03 µM |  | 
Cc1cc(-c2cc3c(cc2Nc2cccc4c2C(=O)N(C2CCC(=O)NC2=O)C4=O)c(C)nn3C)ccn1 (stereo not drawn) [Compound 3, 4-((1,3-dimethyl-6-(2-methylpyridin-4-yl)-1H-indazol-5-yl)amino)-2-(2,6-dioxopiperidin-3-yl)isoindoline-1,3-dione] | 66 to 100% |  | < 0.03 µM |  | 0.01 to 0.1 µM
O=C1CCC(N2C(=O)c3cccc(Nc4cc5cnn(C6CCOCC6)c5cc4-c4ccnc(C(F)F)c4)c3C2=O)C(=O)N1 (stereo not drawn) [Compound 11, 4-((6-(2-(difluoromethyl)pyridin-4-yl)-1-(tetrahydro-2H-pyran-4-yl)-1H-indazol-5-yl)amino)-2-(2,6-dioxopiperidin-3-yl)isoindoline-1,3-dione] | 66 to 100% |  | > 0.1 µM |  | > 0.1 µM
Cc1cc(Oc2ccccc2)c(Nc2cccc3c2C(=O)N(C2CCC(=O)NC2=O)C3=O)cn1 (stereo not drawn) [Compound 21, 2-(2,6-dioxopiperidin-3-yl)-4-((6-methyl-4-phenoxypyridin-3-yl)amino)isoindoline-1,3-dione] | 33 to 66% | < 0.01 µM |  | 0.03 to 0.1 µM | 
